Assay results published in patent publication US11744901B2, “Phage conjugates and uses thereof” (CONSIGLIO NAZIONALE DELLE RICERCHE, priority 2017, dated 2023).

Assays:
[1] = human immunotherapy, repeated KRN7000 administration; cited from earlier work
iNKT cells = settings: animal model; prevents release of cytokines after recall stimulations (Sullivan and Kronenberg 2005); cited from earlier work
splenocytes = settings: stated as known, cited from earlier work
B16 melanoma cells = assay: Therapeutic vaccination against B16 tumour cells; assay type: in vivo; settings: B16 melanoma subcutaneous in C57BL/6 mice, intratumoural treatment when tumours palpable; FIG. 4
Method: C57BL/6 mice (n=5/group) were inoculated with 2.5×10^5 B16 melanoma cells kindly provided by Dr. Dellabona (Istituto scientifico San Raffaele, Milan, Sartorius R et al., 2011) subcutaneously in the left side. When the tumours became palpable, the mice were vaccinated with PBS, 2.5 micrograms aGalCer, 50 micrograms of fdWT bacteriophages or 50 micrograms of fdWT/aGalCer in a total volume of 80 microliters. Tumour growth was assessed three times a week using a caliber and reported as tumour volume (in mm^3) according to the formula (d^2×D)/2, where d and D are the minor diameter and the major one, respectively. The mice were sacrificed when the size of the tumour had exceeded 1,500 mm^3, in compliance with the established guidelines. Survival was recorded as the percentage of surviving animals.

Row | Compound | tolerability in patients [1] | clinical response in patients [1] | anergy of iNKT cells (iNKT cells) | levels of T-cell receptor (TCR) on iNKTs (splenocytes; administered intravenously to mice) | ability of splenocytes to proliferate and produce cytokines after in vitro restimulation with aGalCer (splenocytes; mice injected with soluble aGalCer, compared to naive splenocytes) | tumour growth (B16 melanoma cells)
1 | CCCCCCCCCCCCCCCCCCCCCCCCCC(=O)N[C@@H](CO[C@H]1OC(CO)[C@H](O)C(O)C1O)[C@H](O)[C@H](O)CCCCCCCCCCCCCC (stereo partly drawn) [aGalCer, alpha-Galactosylceramide] | well tolerated | – | – | – | – | –
2 | CCCCCCCCCCCCCCCCCCCCCCCCCC(=O)N[C@@H](CO[C@H]1O[C@H](CO)[C@H](O)[C@H](O)[C@H]1O)[C@H](O)[C@H](O)CCCCCCCCCCCCCC [aGalCer, alpha-Galactosylceramide] | – | weak clinical response | induces long term cell anergy of iNKT cells | decrease | lose rapidly their ability to proliferate and produce cytokines | not able to protect animals from tumour growth
